Read-outs that look alike come from different tables or passages of the source. *1 amine or outer side, *2 acyl side, *3 side chain or, on linkers, in order; H or OH if unused. Where a SMILES comes first, the peptide text is derived from it. Side-chain parts run from the residue outwards. [ ]: non-standard residue; d: D form. The star is where a group is joined. C20 diacid = O=C(O)CCCCCCCCCCCCCCCCCCC(=O)*; γGlu = O=C(O)[C@H](CCC(=O)[*:2])N[*:1]; εLys = N[C@@H](CCCCN[*:1])C(=O)[*:2]; Palmitoyl = CCCCCCCCCCCCCCCC(=O)*; AEEA = NCCOCCOCC(=O)O; Aib = CC(C)(N)C(=O)O
Columns and labels:
human GLP-1 receptor = molecular target: T1, human GLP-1 receptor (Homo sapiens, UniProt P43220); experiment: In vitro functional potency (CRE luciferase; whole cells), human GLP-1R; format: cell-based; conditions: BHK CRE luc2P hGLP-1R whole cells; Table 2; read-out: hGLP-1R CRE Luc EC50
T1 construct: expressed in transfected cells; host or cells: BHK cells (parent line BHKTS13) containing CRE luciferase

human GIP receptor = molecular target: T2, human GIP receptor (Homo sapiens, UniProt P48546); experiment: In vitro functional potency (CRE luciferase; whole cells), human GIPR; format: cell-based; conditions: BHK CRE luc2P hGIPR whole cells, read-out: hGIPR CRE Luc EC50
T2 construct: expressed in transfected cells; host or cells: BHK cells (parent line BHKTS13) containing CRE luciferase
T2 sequence (P48546 22-466): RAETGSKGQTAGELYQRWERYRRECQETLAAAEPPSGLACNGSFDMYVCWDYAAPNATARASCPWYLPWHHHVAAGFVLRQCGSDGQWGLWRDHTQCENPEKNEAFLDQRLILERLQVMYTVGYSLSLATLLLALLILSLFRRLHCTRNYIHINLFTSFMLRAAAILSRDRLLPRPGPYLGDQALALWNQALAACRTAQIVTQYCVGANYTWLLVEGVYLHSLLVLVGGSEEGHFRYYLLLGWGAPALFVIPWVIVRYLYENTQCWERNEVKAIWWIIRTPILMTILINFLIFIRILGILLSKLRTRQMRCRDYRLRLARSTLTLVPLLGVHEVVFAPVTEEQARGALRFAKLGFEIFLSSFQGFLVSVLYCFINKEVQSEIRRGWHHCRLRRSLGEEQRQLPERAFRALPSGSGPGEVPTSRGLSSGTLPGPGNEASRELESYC
Experimental: The purpose of this example is to test the functional activity, or potency, of the compounds in vitro at the human and mouse GLP-1, GIP, and Gcg receptors. The in vitro functional potency is the measure of target receptor activation in a whole cell assay.
In vitro functional potency was determined by measuring the response of the target receptor in a reporter gene assay in individual cell lines. The assay was performed in stably transfected BHK cell lines that expresses one of the following G-protein coupled receptors: human GLP-1 receptor, human GIP receptor, human Gcg receptor, mouse GLP-1 receptor, mouse GIP receptor, or mouse Gcg receptor; and where each cell line contains the DNA for the cAMP response element (CRE) coupled to a promoter and the gene for firefly luciferase (CRE luciferase). When the respective receptor is activated, it results in the production of cAMP, which in turn results in expression of the luciferase protein. When assay incubation is completed, luciferase substrate (luciferin) is added resulting in the enzymatic conversion of luciferin to oxyluciferin and producing bioluminescence. The luminescence is measured as the readout for the assay.
The cells lines used in these assays were BHK cells with BHKTS13 as a parent cell line. The cell lines were derived from a clone containing the CRE luciferase element and were established by further transfection with the respective receptor to obtain the relevant cell line.
The cells were cultured at 37° C. with 5% CO2 in Cell Culture Medium. They were aliquoted and stored in liquid nitrogen. The cells were kept in continuous culture and were seeded out the day before each assay.
GLP-1R and GcgR Cell Culture Medium consisted of DMEM medium with 10% FBS, 500 µg/mL G418, and 300 µg/mL hygromycin. GIPR Cell Culture Medium consisted of DMEM medium with 10% FBS, 400 µg/mL G418, and 300 µg/mL hygromycin. Assay Buffer consisted of DMEM w/o phenol red, 10 mM Hepes, 1× Glutamax, 1% ovalbumin, and 0.1% Pluronic F-68.
• 1) Cells were plated at 5000 cells/well and incubated overnight in the assay plate. • 2) Cells were washed once in DPBS. • 3) Stocks of the test compounds and reference compounds in concentrations ranging from 100-300 pM were diluted 1:150 in Assay Buffer.
The data from the microtiter plate reader was first regressed in an Excel in order to calculate the x-axis, log scale concentrations based on the individual test compound's stock concentration and the dilutions of the assay. […] The software performs a non-linear regression (log(agonist) vs response). A minimum of two replicates was measured for each sample. The reported values are averages of the replicates.

T1 sequence (P43220 24-463): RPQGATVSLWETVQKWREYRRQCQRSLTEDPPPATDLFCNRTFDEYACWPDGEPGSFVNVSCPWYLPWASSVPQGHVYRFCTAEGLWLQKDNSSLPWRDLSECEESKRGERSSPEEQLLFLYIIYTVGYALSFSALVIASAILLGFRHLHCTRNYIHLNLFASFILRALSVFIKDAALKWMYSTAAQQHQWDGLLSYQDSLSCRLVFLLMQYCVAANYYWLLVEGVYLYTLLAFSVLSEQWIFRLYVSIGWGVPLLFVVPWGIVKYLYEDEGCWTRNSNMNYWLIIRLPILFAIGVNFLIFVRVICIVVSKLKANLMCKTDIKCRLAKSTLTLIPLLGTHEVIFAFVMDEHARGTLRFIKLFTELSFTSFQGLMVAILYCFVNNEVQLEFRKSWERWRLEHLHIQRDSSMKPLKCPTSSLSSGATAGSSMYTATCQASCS

Row | Structure (SMILES) | EC50 (human GLP-1 receptor) [pM] | EC50 (human GIP receptor; Table 2) [pM] | EC50 (human GIP receptor; Table 1, position of substituent varied) [pM]
1 | CC[C@H](C)[C@H](NC(=O)[C@H](CO)NC(=O)[C@H](Cc1ccc(O)cc1)NC(=O)[C@H](CC(=O)O)NC(=O)[C@H](CO)NC(=O)[C@@H](NC(=O)[C@H](Cc1ccccc1)NC(=O)[C@@H](NC(=O)CNC(=O)[C@H](CCC(N)=O)NC(=O)C(C)(C)NC(=O)[C@@H](N)Cc1ccc(O)cc1)[C@@H](C)O)[C@@H](C)O)C(=O)N[C@@H](Cc1ccc(O)cc1)C(=O)N[C@@H](CC(C)C)C(=O)N[C@@H](CCC(=O)O)C(=O)N[C@@H](CCCCNC(=O)COCCOCCNC(=O)COCCOCCNC(=O)CC[C@H](NC(=O)CCCCCCCCCCCCCCCCCCC(=O)O)C(=O)O)C(=O)N[C@@H](CCC(N)=O)C(=O)N[C@@H](C)C(=O)N[C@@H](C)C(=O)NC(C)(C)C(=O)N[C@@H](CCC(=O)O)C(=O)N[C@@H](Cc1ccccc1)C(=O)N[C@H](C(=O)N[C@@H](CC(N)=O)C(=O)N[C@@H](Cc1c[nH]c2ccccc12)C(=O)N[C@@H](CC(C)C)C(=O)N[C@@H](CC(C)C)C(=O)N[C@@H](C)C(=O)NCC(=O)NCC(=O)N1CCC[C@H]1C(=O)N[C@@H](CO)C(=O)N[C@@H](CO)C(=O)NCC(=O)N[C@@H](C)C(=O)N1CCC[C@H]1C(=O)N1CCC[C@H]1C(=O)N1CCC[C@H]1C(=O)N[C@@H](CO)C(N)=O)C(C)C [Compound No. 15] (H-Y[Aib]QGTFTSDYSIYLEK([AEEA-AEEA-γGlu-C20 diacid])QAA[Aib]EFVNWLLAGGPSSGAPPPS-NH2) | 1.4 | 4.8 | 
2 | CC[C@H](C)[C@H](NC(=O)[C@H](CO)NC(=O)[C@H](Cc1ccc(O)cc1)NC(=O)[C@H](CC(=O)O)NC(=O)[C@H](CO)NC(=O)[C@@H](NC(=O)[C@H](Cc1ccccc1)NC(=O)[C@@H](NC(=O)CNC(=O)[C@H](Cc1c[nH]cn1)NC(=O)C(C)(C)NC(=O)[C@@H](N)Cc1c[nH]cn1)[C@@H](C)O)[C@@H](C)O)C(=O)N[C@@H](Cc1ccc(O)cc1)C(=O)N[C@@H](CC(C)C)C(=O)N[C@@H](CCC(=O)O)C(=O)N[C@@H](CCCCNC(=O)[C@@H](N)CCCCNC(=O)[C@@H](N)CCCCNC(=O)CC[C@H](NC(=O)CCCCCCCCCCCCCCCCCCC(=O)O)C(=O)O)C(=O)N[C@@H](CCC(N)=O)C(=O)N[C@@H](C)C(=O)N[C@@H](C)C(=O)NC(C)(C)C(=O)N[C@@H](CCC(=O)O)C(=O)N[C@@H](Cc1ccccc1)C(=O)N[C@H](C(=O)N[C@@H](CCC(N)=O)C(=O)N[C@@H](Cc1c[nH]c2ccccc12)C(=O)N[C@@H](CC(C)C)C(=O)N[C@@H](CC(C)C)C(=O)N[C@@H](CCC(=O)O)C(=O)NCC(=O)NCC(=O)N1CCC[C@H]1C(=O)N[C@@H](CO)C(=O)N[C@@H](CO)C(=O)NCC(=O)N[C@@H](C)C(=O)N1CCC[C@H]1C(=O)N1CCC[C@H]1C(=O)N1CCC[C@H]1C(=O)N[C@@H](CO)C(N)=O)C(C)C [Compound No. 22] (H-H[Aib]HGTFTSDYSIYLEK([εLys-εLys-γGlu-C20 diacid])QAA[Aib]EFVQWLLEGGPSSGAPPPS-NH2; N-terminus assumed) | 2 | 7.1 | 
3 | CC(C)C[C@H](NC(=O)[C@H](CC(C)C)NC(=O)[C@H](Cc1c[nH]c2ccccc12)NC(=O)[C@H](CCC(N)=O)NC(=O)[C@@H](NC(=O)[C@H](Cc1ccccc1)NC(=O)[C@H](CCC(=O)O)NC(=O)C(C)(C)NC(=O)[C@H](C)NC(=O)[C@H](C)NC(=O)[C@H](CCC(N)=O)NC(=O)[C@H](CCCCNC(=O)[C@@H](N)CCCCNC(=O)[C@@H](N)CCCCNC(=O)CC[C@H](NC(=O)CCCCCCCCCCCCCCCCCCC(=O)O)C(=O)O)NC(=O)[C@H](CCC(=O)O)NC(=O)[C@H](CC(C)C)NC(=O)[C@H](Cc1ccc(O)cc1)NC(=O)[C@H](CCCCN)NC(=O)[C@H](CO)NC(=O)[C@H](Cc1ccc(O)cc1)NC(=O)[C@H](CC(=O)O)NC(=O)[C@H](CO)NC(=O)[C@@H](NC(=O)[C@H](Cc1ccccc1)NC(=O)[C@@H](NC(=O)CNC(=O)[C@H](Cc1c[nH]cn1)NC(=O)C(C)(C)NC(=O)[C@@H](N)Cc1c[nH]cn1)[C@@H](C)O)[C@@H](C)O)C(C)C)C(=O)N[C@@H](CCC(=O)O)C(=O)NCC(=O)NCC(=O)N1CCC[C@H]1C(=O)N[C@@H](CO)C(=O)N[C@@H](CO)C(=O)NCC(=O)N[C@@H](C)C(=O)N1CCC[C@H]1C(=O)N1CCC[C@H]1C(=O)N1CCC[C@H]1C(=O)N[C@@H](CO)C(N)=O [Compound No. 36] (H-H[Aib]HGTFTSDYSKYLEK([εLys-εLys-γGlu-C20 diacid])QAA[Aib]EFVQWLLEGGPSSGAPPPS-NH2) | 1.8 | 9.3 | 
4 | CC[C@H](C)[C@H](NC(=O)[C@H](CO)NC(=O)[C@H](Cc1ccc(O)cc1)NC(=O)[C@H](CC(=O)O)NC(=O)[C@H](CO)NC(=O)[C@@H](NC(=O)[C@H](Cc1ccccc1)NC(=O)[C@@H](NC(=O)CNC(=O)[C@H](Cc1c[nH]cn1)NC(=O)C(C)(C)NC(=O)[C@@H](N)Cc1c[nH]cn1)[C@@H](C)O)[C@@H](C)O)C(=O)N[C@@H](CC(C)C)C(=O)N[C@@H](CC(C)C)C(=O)N[C@@H](CCC(=O)O)C(=O)N[C@@H](CCCCNC(=O)COCCOCCNC(=O)COCCOCCNC(=O)CC[C@H](NC(=O)CCCCCCCCCCCCCCCCCCC(=O)O)C(=O)O)C(=O)N[C@@H](CCC(N)=O)C(=O)N[C@@H](C)C(=O)N[C@@H](C)C(=O)NC(C)(C)C(=O)N[C@@H](CCC(=O)O)C(=O)N[C@@H](Cc1ccccc1)C(=O)N[C@H](C(=O)N[C@@H](CCC(N)=O)C(=O)N[C@@H](Cc1c[nH]c2ccccc12)C(=O)N[C@@H](CC(C)C)C(=O)N[C@@H](CC(C)C)C(=O)N[C@@H](CCC(=O)O)C(=O)NCC(=O)NCC(=O)N1CCC[C@H]1C(=O)N[C@@H](CO)C(=O)N[C@@H](CO)C(=O)NCC(=O)N[C@@H](C)C(=O)N1CCC[C@H]1C(=O)N1CCC[C@H]1C(=O)N1CCC[C@H]1C(=O)N[C@@H](CO)C(N)=O)C(C)C [Compound No. 45] (H-H[Aib]HGTFTSDYSILLEK([AEEA-AEEA-γGlu-C20 diacid])QAA[Aib]EFVQWLLEGGPSSGAPPPS-NH2; N-terminus assumed) | 2.4 | 1.9 | 
5 | CC[C@H](C)[C@H](NC(=O)[C@H](CO)NC(=O)[C@H](Cc1ccc(O)cc1)NC(=O)[C@H](CC(=O)O)NC(=O)[C@H](CO)NC(=O)[C@@H](NC(=O)[C@H](Cc1ccccc1)NC(=O)[C@@H](NC(=O)CNC(=O)[C@H](Cc1c[nH]cn1)NC(=O)C(C)(C)NC(=O)[C@@H](N)Cc1c[nH]cn1)[C@@H](C)O)[C@@H](C)O)C(=O)N[C@@H](CC(C)C)C(=O)N[C@@H](CC(C)C)C(=O)N[C@@H](CCC(=O)O)C(=O)N[C@@H](CCCCNC(=O)[C@@H](N)CCCCNC(=O)[C@@H](N)CCCCNC(=O)CC[C@H](NC(=O)CCCCCCCCCCCCCCCCCCC(=O)O)C(=O)O)C(=O)N[C@@H](CCC(N)=O)C(=O)N[C@@H](C)C(=O)N[C@@H](C)C(=O)N[C@@H](CCC(=O)O)C(=O)N[C@@H](CCC(=O)O)C(=O)N[C@@H](Cc1ccccc1)C(=O)N[C@H](C(=O)N[C@@H](CCC(N)=O)C(=O)N[C@@H](Cc1c[nH]c2ccccc12)C(=O)N[C@@H](CC(C)C)C(=O)N[C@@H](CC(C)C)C(=O)N[C@@H](CCC(=O)O)C(=O)NCC(=O)NCC(=O)N1CCC[C@H]1C(=O)N[C@@H](CO)C(=O)N[C@@H](CO)C(=O)NCC(=O)N[C@@H](C)C(=O)N1CCC[C@H]1C(=O)N1CCC[C@H]1C(=O)N1CCC[C@H]1C(=O)N[C@@H](CO)C(N)=O)C(C)C [Compound No. 49] (H-H[Aib]HGTFTSDYSILLEK([εLys-εLys-γGlu-C20 diacid])QAAEEFVQWLLEGGPSSGAPPPS-NH2) | 1.4 | 2.1 | 
6 | CCCCCCCCCCCCCCCC(=O)NCCCC[C@H](NC(=O)[C@H](CO)NC(=O)[C@@H]1CCCN1C(=O)[C@@H]1CCCN1C(=O)[C@@H]1CCCN1C(=O)[C@H](C)NC(=O)CNC(=O)[C@H](CO)NC(=O)[C@H](CO)NC(=O)[C@@H]1CCCN1C(=O)CNC(=O)CNC(=O)[C@H](C)NC(=O)[C@H](CC(C)C)NC(=O)[C@H](CC(C)C)NC(=O)[C@H](Cc1c[nH]c2ccccc12)NC(=O)[C@H](CC(N)=O)NC(=O)[C@@H](NC(=O)[C@H](Cc1ccccc1)NC(=O)[C@H](CCC(=O)O)NC(=O)C(C)(C)NC(=O)[C@H](C)NC(=O)[C@H](C)NC(=O)[C@H](CCC(N)=O)NC(=O)[C@H](CCCCN)NC(=O)[C@H](CC(=O)O)NC(=O)[C@H](CC(C)C)NC(=O)[C@H](Cc1ccc(O)cc1)NC(=O)[C@@H](NC(=O)[C@H](CO)NC(=O)[C@H](Cc1ccc(O)cc1)NC(=O)[C@H](CC(=O)O)NC(=O)[C@H](CO)NC(=O)[C@@H](NC(=O)[C@H](Cc1ccccc1)NC(=O)[C@@H](NC(=O)CNC(=O)[C@H](CCC(N)=O)NC(=O)C(C)(C)NC(=O)[C@@H](N)Cc1ccc(O)cc1)[C@@H](C)O)[C@@H](C)O)[C@@H](C)CC)C(C)C)C(N)=O [Compound No. 58, reference compound] (H-Y[Aib]QGTFTSDYSIYLDKQAA[Aib]EFVNWLLAGGPSSGAPPPSK(Palmitoyl)-NH2; N-terminus assumed) |  |  | 7.2
